“Also recorded” adds a separate entry of the source. Read-outs that look alike come from different tables or passages of the source. * marks the point of attachment. butyroxycarboxy = not defined here; pNA = O=[N+]([O-])c1ccc(N*)cc1
Experiments:
Format in all cases: biochemical, Alkaliphillus transvaalensis
alkaline protease ALTP [1] = settings: for Residual activity (%): pH 10
alkaline protease ALTP [2] = assay: Action on synthetic substrates (synthetic substrate method, p-nitroaniline release); settings: for Relative activity (%): activity to AAPF = 100%, pH 10.0, 30° C., 10 minutes
Experimental: 0.9 ml of 100 mmol/L borate buffer (pH=10.0, containing 2 mmol/L calcium chloride) was mixed with 0.05 ml of a 50 mmol/L synthetic substrate solution (solution obtained by dissolving a p-nitroanilide derivative of an oligopeptide in dimethyl sulfoxide), and the mixture was warmed at 30° C. for 5 minutes. Then, 0.05 ml of the enzyme solution was added, and a reaction was conducted at 30° C. for 10 minutes. 2 ml of a 5% (w/v) citric acid solution was added to terminate the reaction. Absorbance at 420 nm was measured with a spectrophotometer to quantify liberated p-nitroaniline.
Herein, one unit (PU) of the enzyme referred to an amount of an enzyme required to liberate 1 μmol of p-nitroaniline for 1 minute under the foregoing reaction conditions.
Reactivity of alkaline protease ALTP of the invention with each synthetic substrate was measured using synthetic oligopeptide substrates shown in Table 6.
0.9 ml of 100 mmol/L borate buffer (pH=10.0, containing 2 mmol/L calcium chloride) was mixed with 0.05 ml of a 50 mmol/L synthetic substrate solution shown in Table 6. After the mixture was warmed at 30° C. for 5 minutes, 0.05 ml of the enzyme solution was added thereto, and the reaction was conducted at 30° C. for 10 minutes. 2 ml of a 5% (w/v) citric acid solution was added to terminate the reaction. Absorbance at 420 nm was measured using a spectrophotometer, and p-nitroaniline liberated was quantified.
Target sequence in this assay (as listed by the source): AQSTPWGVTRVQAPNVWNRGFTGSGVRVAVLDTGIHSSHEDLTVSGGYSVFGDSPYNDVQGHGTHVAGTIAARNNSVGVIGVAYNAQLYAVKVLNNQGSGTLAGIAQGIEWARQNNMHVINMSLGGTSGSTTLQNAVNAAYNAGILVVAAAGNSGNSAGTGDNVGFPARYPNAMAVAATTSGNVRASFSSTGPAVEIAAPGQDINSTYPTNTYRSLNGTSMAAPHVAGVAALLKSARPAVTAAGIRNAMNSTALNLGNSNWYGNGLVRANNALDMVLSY

alkaline protease ALTP [3] = assay: Influence of inhibitors on residual activity
Experimental: Each inhibitor was added to 20 mmol/L phosphate buffer (pH 7) at a predetermined concentration, and the invention enzyme was added thereto. The solution was warmed at 30° C. for 20 minutes. Subsequently, the resulting solution was approximately diluted with 50 mmol/L borate buffer (pH 10), and the residual activity was measured.

alkaline protease ALTP [4] = assay: Influence of surfactants on residual activity (casein method); settings: for Residual activity (%): pH 9.0, 40° C., 4 hours, time 0 = 100%
Experimental: Influence of surfactants on alkaline protease ALTP of the invention was examined. That is, the invention enzyme solution was added to 0.1 mol/L Tris-hydrochloride buffer (pH 9.0), and each of various surfactants shown in Table 4 was added to the solution. The treatment was conducted at 40° C. for 4 hours. Subsequently, the solution was properly diluted with 50 mmol/L borate buffer (pH 10.5) containing 2 mmol/L calcium chloride, and the residual activity was measured by the casein method. The residual activity was expressed in terms of a relative value when an activity value (treatment time 0 minute) immediately after addition of the enzyme to each sample was defined as 100%.

[5] = inhibitor 0.1 mM, pH 7, 30° C., 20 minutes
[6] = inhibitor 1.0 mM, pH 7, 30° C., 20 minutes

[Ca+2].[Cl-].[Cl-] [CaCl2]
inhibition by metal ion (alkaline protease ALTP [1]; concentration of 1 mM): not inhibited | Residual activity (%) (alkaline protease ALTP [1]): 118%

N-succinyl-Ala-Ala-Pro-Phe-p-nitroanilide [AAPF]
Relative activity (%) (alkaline protease ALTP [2]): 100%

[Cl-].[Cl-].[Co+2] [CoCl2]
inhibition by metal ion (alkaline protease ALTP [1]): not inhibited | Residual activity (%) (alkaline protease ALTP [1]): 92%

O=C(O)CI [Iodine acetate]
Residual activity (%) (alkaline protease ALTP [3]; pH 7): 104%

N-succinyl-Ala-Ala-Pro-Met-p-nitroanilide (AAPM; HELM PEPTIDE1{[O=C(O)CCC(=O)[*:2]].A.A.P.M.[O=[N+]([O-])c1ccc(N[*:1])cc1]}$$$$V2.0; SMILES CSCC[C@H](NC(=O)[C@@H]1CCCN1C(=O)[C@H](C)NC(=O)[C@H](C)NC(=O)CCC(=O)O)C(=O)Nc1ccc([N+](=O)[O-])cc1) [synthetic substrate]
Relative activity (%) (alkaline protease ALTP [2]): 74%

N-carboxybenzoxy-Phe-Val-Arg-p-nitroanilide (carboxybenzoxy-Phe-Val-Arg-pNA) [Z-FVR, synthetic substrate]
activity to further synthetic substrates (alkaline protease ALTP [2]): showed activity

N-succinyl-Ala-Ala-Val-Ala-p- nitroanilide (AAVA; HELM PEPTIDE1{[O=C(O)CCC(=O)[*:2]].A.A.V.A.[O=[N+]([O-])c1ccc(N[*:1])cc1]}$$$$V2.0; SMILES CC(C)[C@H](NC(=O)[C@H](C)NC(=O)[C@H](C)NC(=O)CCC(=O)O)C(=O)N[C@@H](C)C(=O)Nc1ccc([N+](=O)[O-])cc1) [synthetic substrate]
Relative activity (%) (alkaline protease ALTP [2]): 4.6%

NC(N)=O [urea]
inhibition (alkaline protease ALTP [3]; 0.5 M): little inhibited

[Cl][Sn][Cl] [SnCl2]
inhibition by metal ion (alkaline protease ALTP [1]; concentration of 1 mM): not inhibited | Residual activity (%) (alkaline protease ALTP [1]): 108%

CC(=O)N[C@@H](CC(C)C)C(=O)N[C@@H](CC(C)C)C(=O)N[C@H](C=O)CCCNC(=N)N [Leupeptin]
Residual activity (%) (alkaline protease ALTP [3]; [5]): 100%

O=C(O)CN(CCN(CC(=O)O)CC(=O)O)CC(=O)O [EDTA, ethylenediamine tetraacetic acid]
inhibition (alkaline protease ALTP [3]; 100 mM): little inhibited; also recorded: not inhibited | Residual activity (%) (alkaline protease ALTP [3]; inhibitor 100 mM, pH 7, 30° C., 20 minutes): 100%

Linear sodium alkylbenzene sulfonate
inhibition of activity by surfactant (alkaline protease ALTP [4]): not inhibited | Residual activity (%) (alkaline protease ALTP [4]; surfactant 1.0%): 98%

[Ba+2].[Cl-].[Cl-] [BaCl2]
inhibition by metal ion (alkaline protease ALTP [1]; concentration of 1 mM): not inhibited | Residual activity (%) (alkaline protease ALTP [1]): 100%

N-succinyl-Ala-Ala-p-nitroanilide [AA]
activity to further synthetic substrates (alkaline protease ALTP [2]): showed activity

α-sulfo-fatty acid ester
inhibition of activity by surfactant (alkaline protease ALTP [4]): not inhibited | Residual activity (%) (alkaline protease ALTP [4]; surfactant 1.0%): 106%

[Cl-].[K+] [KCl]
inhibition by metal ion (alkaline protease ALTP [1]; concentration of 1 mM): not inhibited | Residual activity (%) (alkaline protease ALTP [1]): 111%

[Cl][Fe]([Cl])[Cl] [FeCl3]
Residual activity (%) (alkaline protease ALTP [1]): 110%

[Cl][Pb][Cl] [PbCl2]
inhibition by metal ion (alkaline protease ALTP [1]; concentration of 1 mM): not inhibited | Residual activity (%) (alkaline protease ALTP [1]): 115%

[Cl-].[Cl-].[Zn+2] [ZnCl2]
inhibition by metal ion (alkaline protease ALTP [1]; concentration of 1 mM): not inhibited | Residual activity (%) (alkaline protease ALTP [1]): 121%

O=S(=O)(F)Cc1ccccc1 [PMSF, phenylmethanesulfonyl fluoride]
inhibition (alkaline protease ALTP [3]; 1 mM): completely inhibited | Residual activity (%) (alkaline protease ALTP [3]; [6]): 0%

[Cl][Mn][Cl] [MnCl2]
inhibition by metal ion (alkaline protease ALTP [1]; concentration of 1 mM): not inhibited | Residual activity (%) (alkaline protease ALTP [1]): 113%

triton X-100
inhibition (alkaline protease ALTP [3]; 1%): little inhibited

N- succinyl-Gly-Gly-Phe-p-nitroanilide (GGF; HELM PEPTIDE1{[O=C(O)CCC(=O)[*:2]].G.G.F.[O=[N+]([O-])c1ccc(N[*:1])cc1]}$$$$V2.0; SMILES O=C(O)CCC(=O)NCC(=O)NCC(=O)N[C@@H](Cc1ccccc1)C(=O)Nc1ccc([N+](=O)[O-])cc1) [synthetic substrate]
activity to further synthetic substrates (alkaline protease ALTP [2]): showed activity

[Cl-].[Li+] [LiCl2]
inhibition by metal ion (alkaline protease ALTP [1]; concentration of 1 mM): not inhibited | Residual activity (%) (alkaline protease ALTP [1]): 114%

butyroxycarboxy-Leu-Ser- Thr-Arg-p-nitroanilide (butyroxycarboxy-LSTR-pNA; reading uncertain) [synthetic substrate]
activity to further synthetic substrates (alkaline protease ALTP [2]): showed activity

[Cl][Cd][Cl] [CdCl2]
inhibition by metal ion (alkaline protease ALTP [1]; concentration of 1 mM): not inhibited | Residual activity (%) (alkaline protease ALTP [1]): 100%

[Cl-].[Cl-].[Mg+2] [MgCl2]
inhibition by metal ion (alkaline protease ALTP [1]; concentration of 1 mM): not inhibited | Residual activity (%) (alkaline protease ALTP [1]): 105%

Sodium polyoxyethylene alkyl sulfate
inhibition of activity by surfactant (alkaline protease ALTP [4]): not inhibited | Residual activity (%) (alkaline protease ALTP [4]; surfactant 1.0%): 99%

O=C(O)c1cc[c]([Hg][Cl])cc1 [p-chloromercuribenzoic acid]
inhibition (alkaline protease ALTP [3]; 1 mM): little inhibited

CC(C)C[C@H](NC(=O)[C@@H](NC(=O)N[C@@H](Cc1ccccc1)C(=O)O)[C@@H]1CCN=C(N)N1)C(=O)N[C@H](C=O)Cc1ccccc1 [Chymostatin]
inhibition (alkaline protease ALTP [3]; 30 ppm): completely inhibited | Residual activity (%) (alkaline protease ALTP [3]; inhibitor 30 ppm, pH 7, 30° C., 20 minutes): 0%

Sodium α-olefin sulfonate
inhibition of activity by surfactant (alkaline protease ALTP [4]): not inhibited | Residual activity (%) (alkaline protease ALTP [4]; surfactant 1.0%): 128%

N-methoxysuccinyl- Ala-Ile-Pro-Met-p-nitroanilide (AIPM; HELM PEPTIDE1{[COC(=O)CCC(=O)[*:2]].A.I.P.M.[O=[N+]([O-])c1ccc(N[*:1])cc1]}$$$$V2.0; SMILES CC[C@H](C)[C@H](NC(=O)[C@H](C)NC(=O)CCC(=O)OC)C(=O)N1CCC[C@H]1C(=O)N[C@@H](CCSC)C(=O)Nc1ccc([N+](=O)[O-])cc1) [synthetic substrate]
Relative activity (%) (alkaline protease ALTP [2]): 90%

O=C1CCC(=O)N1Br [N-bromosuccinic acid imide]
Residual activity (%) (alkaline protease ALTP [3]; [6]): 104%

CCCCCCCCCCCCOS(=O)(=O)[O-].[Na+] [Sodium dodecyl sulfate]
inhibition of activity by surfactant (alkaline protease ALTP [4]): not inhibited | Residual activity (%) (alkaline protease ALTP [4]; surfactant 10.0%): 104% | inhibition (alkaline protease ALTP [3]; 1 mM): little inhibited

[Cl-].[Na+] [NaCl]
inhibition by metal ion (alkaline protease ALTP [1]): not inhibited | Residual activity (%) (alkaline protease ALTP [1]): 112%

N-succinyl-Ala-Ala-Ala-p-nitroanilide [AAA]
activity to further synthetic substrates (alkaline protease ALTP [2]): showed activity

Sodium alkane sulfonate
inhibition of activity by surfactant (alkaline protease ALTP [4]): not inhibited | Residual activity (%) (alkaline protease ALTP [4]; surfactant 10.0%): 107%

N-glutaryl-Ala-Ala-Pro-Leu-p-nitroanilide (AAPL; HELM PEPTIDE1{[O=C(O)CCCC(=O)[*:2]].A.A.P.L.[O=[N+]([O-])c1ccc(N[*:1])cc1]}$$$$V2.0; SMILES CC(C)C[C@H](NC(=O)[C@@H]1CCCN1C(=O)[C@H](C)NC(=O)[C@H](C)NC(=O)CCCC(=O)O)C(=O)Nc1ccc([N+](=O)[O-])cc1) [synthetic substrate]
Relative activity (%) (alkaline protease ALTP [2]): 91%

N-p-tosyl-Gly-Pro-Lys-p-nitroanilide ({p‑tosyl}-Gly-Pro-Lys-pNA) [To-GPK, synthetic substrate]
activity to further synthetic substrates (alkaline protease ALTP [2]): showed activity

[Cl][Fe][Cl] [FeCl2]
Residual activity (%) (alkaline protease ALTP [1]): 120%

[Cl][Cu][Cl] [CuCl2]
inhibition by metal ion (alkaline protease ALTP [1]; concentration of 1 mM): not inhibited | Residual activity (%) (alkaline protease ALTP [1]): 109%

CC(C)C[C@H](NC(=O)[C@@H](O)[C@H](N)Cc1ccccc1)C(=O)O [Bestatin]
Residual activity (%) (alkaline protease ALTP [3]; [5]): 106%

Polyoxyethylene alkyl alcohol
inhibition of activity by surfactant (alkaline protease ALTP [4]): not inhibited | Residual activity (%) (alkaline protease ALTP [4]; surfactant 1.0%): 107%

[Cl][Ni][Cl] [NiCl2]
inhibition by metal ion (alkaline protease ALTP [1]; concentration of 1 mM): not inhibited | Residual activity (%) (alkaline protease ALTP [1]): 94%

[Cl][Hg][Cl] [HgCl2]
inhibition by metal ion (alkaline protease ALTP [1]; concentration of 1 mM): inhibited | Residual activity (%) (alkaline protease ALTP [1]): 15%
